Article PMC11372839, “Unraveling the Potential of Vitamin B3-Derived Salts with a Salicylate Anion as Dermal Active Agents for Acne Treatment” (Molecular Pharmaceutics, 2024)
Values after ≈ are worked out from the molar mass of the structure shown. Where two headings read alike, the source gives them in different places.

Key:
Artemia franciscana = experiment: Ecotoxicity toward aquatic life, Artoxkit M immobilization test; type: in vivo; conditions: for EC50: Artemia franciscana; for Class: acute toxicity rating scale by Fish and Wildlife Service
Description: To determine the EC50 parameter for compounds, tests were carried out on marine crustaceans—Artemia franciscana (A. franciscana). The methodology proposed in the Artoxkit M test (MicroBioTests Inc., Gent, Belgium) was developed according to the ASTM E1440-91 standard.
The hatching process was started first. For this purpose, 50 mg of cysts was transferred to the Petri dishes attached to the Artoxkit M set, which were then immersed in 10 mL of artificial seawater with a salinity of 35‰ (a medium for the development of the tested organisms, as well as a solvent for preparing solutions of the tested compounds) and placed at a temperature of 25 °C, with access to light (6000–10,000 lux) for 30 h. Then, 2 h before placing them on the Artoxkit M plates, 20 mg of spirulina was added to cultured artemias. In addition, 1 h before the analysis, the used seawater was oxygenated by passing a stream of air through the solution. To each of the four cells in a given row of a plate from the Artoxkit M kit, 1 mL of solution at the specified concentrations (or the appropriate medium in the case of a control) were introduced. In the first column of cells (a control sample and five selected concentrations), no less than 30 artemias were placed from previously prepared Petri dishes. Then, from the first cell in the first column, artemias were collected at the selected concentration and added to the next three cells in the selected row, 10 organisms per cell. After the organisms were introduced into the appropriate cells, the plates were covered with Parafilm and then closed with a plastic cap. The prepared kit was incubated at 25 °C and protected from light. Number of motionless organisms were counted after 24 and 48 h. Immobilization was then calculated (eq 1) in relation to the number of organisms at the start of the test: [drawing 1] 1
Next, the dependence between the effect and concentration of the tested compounds was plotted, and on this basis, an EC50 value was determined.

[1] = Octanol–water partition coefficient, shake-flask method (OECD Test No. 107); type: physicochemical
Description: The octanol–water partition coefficients (KOW) of the synthesized products were estimated by the shake-flask method according to the OECD Test No. 107 guidelines (Partition Coefficient n-Octanol/Water: Shake-Flask Method). Measurements were performed using mutually saturated distilled water and 1-octanol in a glass vial containing a magnetic stir bar. First, the synthesized products were dissolved in distilled water (or 1-octanol) at a chosen concentration (0.01 mol per 1 L of octanol or water), and then proper amounts of the second solvent (octanol or water) were added. Subsequently, two duplicate runs were carried out with different solvent ratios: 4 mL of 1-octanol and 2 mL of water (2:1), 4 mL of 1-octanol and 4 mL of water (1:1), and 4 mL of 1-octanol and 8 mL of water ([…]). All vials were shaken at a constant temperature of 25 °C. After 24 h, all samples were centrifuged and the aqueous and octanolic phases were collected with a syringe. The concentrations of compounds in water were determined spectrophotometrically using a Rayleigh UV-1601 spectrophotometer (Beijing Beifen-Ruili Analytical, China) based on calibration curves made previously (at λmax = 262 nm) vs concentration for each substance. Two repetitions of each measurement were performed in a specific solvent ratio (1:1, 1:2, and 2:1). Finally, the log KOW was calculated as the average of six results collected for each compound.
The outermost layer of the skin (stratum corneum) contains around […] water, a relatively low amount compared to the rest of the human body. Given the hydrophobic nature of 1-octanol, it can be used as a simplified model for the stratum corneum.[50] The octanol–water partition coefficient (KOW) value represents the proportion between the concentrations of a substance in both liquid phases of a system composed of water and 1-octanol. […] The log KOW values are given in Figure 6 (exact values are provided in Table S4, Supporting Information).

Staphylococcus aureus = experiment: MIC and MBC determination, microdilution method; type: cell-based; conditions: for MIC: 18 h, read-out: MIC, S. aureus; for MBC: read-out: MBC, S. aureus
Description: (§1) The antimicrobial activities of the compounds were tested against clinical strains of an aerobic Gram-negative bacterium—Pseudomonas aeruginosa (P. aeruginosa), facultative anaerobic Gram-positive bacteria—Staphylococcus aureus (S. aureus) and Staphylococcus epidermidis (S. epidermidis), anaerobic Gram-positive bacterium—Cutibacterium acnes (C. acnes), and yeast-like fungus—Candida albicans (C. albicans).
(§2) Aerobic and facultative anaerobic bacteria cultures were grown in Brain Heart Infusion broth (BHI, bioMerieux, France) at 35 °C ± 1 °C for 18 h, C. acnes cultures were grown in thioglycolate broth with resazurin (TGB, bioMerieux, France) at 35 ± 1 °C for 48 h, and yeast cultures were grown in Sabouraud dextrose broth (SDB, Merck, Germany) at 35 ± 1 °C for 24 h. After incubation, each culture was diluted in a suitable liquid medium: P. aeruginosa, S. aureus, and S. epidermidis—Mueller–Hinton broth (MHB; Oxoid, UK); C. acnes—TGB; and C. albicans—SDB, to obtain a final suspension containing about 10^6 CFU/mL.
(§3) The microdilution method was employed to determine the compounds’ MIC (Minimal Inhibitory Concentration) and MBC/MFC (Minimal Bactericidal Concentration/Minimal Fungicidal Concentration) against the tested bacterial and fungal strains.
(§4) The compounds were serially diluted (2-fold) in the respective media (P. aeruginosa, S. aureus, and S. epidermidis—MHB, C. acnes—TGB, and C. albicans—SDB in 96-well plates), and the microbial suspensions were added. The compounds were tested in the final concentration range of 4 096 to 0.125 μg/mL, and the final microbial inoculum was approximately 5 ×10^5 CFU/mL. The tests were incubated at 35 °C ± 1 °C for 18 h (P. aeruginosa, S. aureus, and S. epidermidis) or 24 h (C. albicans) or 48 h (C. acnes). C. acnes was incubated in an anaerobic atmosphere using a GENbag anaer (bioMerieux, France). Media (without the strains) added to the different concentrations of tested compounds and media inoculated with microbial suspension were used as a negative control and growth control, respectively.
(§5) The MIC was defined as the lowest concentration at which visible growth was inhibited. MBC and MFC concentrations were determined as an extension of the MIC test. […] The plates were incubated at 35 ± 1 °C for 18–72 h. C. acnes was incubated in an anaerobic atmosphere. The MBC/MFC was defined as the lowest concentration at which no growth was observed. All tests were performed in duplicate.

[2] = test system: Staphylococcus epidermidis; experiment: MIC and MBC determination, microdilution method; type: cell-based; conditions: for MIC: 18 h, read-out: MIC, S. epidermidis; for MBC: read-out: MBC, S. epidermidis
Description: as §1, §2, §3, §4, §5

[3] = immobilization, motionless organisms counted after 24 and 48 h, 25 °C, read-out: EC50
[4] = toxicity range of EC50, read-out: Range
[5] = clinical strain, tested 4 096 to 0.125 μg/mL, b = out of range
[6] = shake-flask, 25 °C, 24 h, average of six results, read-out: Octanol-water partition coefficient (log Kow)

## O=C(O)c1ccccc1O [SAL, salicylic acid, reference compound]
Artemia franciscana; [3]
  EC50: 300 µg/mL (≈ 2.17 mM)
Artemia franciscana; [4]
  EC50: 100 to 1000 µg/mL (≈ 0.724 to 7.24 mM)
Artemia franciscana
  Class: Practically Nontoxic (100-1000)
[1]
  logP at 24 h: 1.82
Staphylococcus aureus; [5]
  MIC: 1020 µg/mL (≈ 7.41 mM)
  MBC: 1020 µg/mL (≈ 7.41 mM)
[2]; [5]
  MIC: 1020 µg/mL (≈ 7.41 mM)
  MBC: 1020 µg/mL (≈ 7.41 mM)

## CCCCCC[n+]1cccc(C(N)=O)c1.O=C([O-])c1ccccc1O [compound 3]
Artemia franciscana; [3]
  EC50: 692 µg/mL
Artemia franciscana; [4]
  EC50: 100 to 1000 µg/mL
Artemia franciscana
  Class: Practically Nontoxic (100-1000)
[1]; [6]
  logP at 24 h: -0.18
Staphylococcus aureus
  MIC: 2050 µg/mL
[2]
  MIC: 4100 µg/mL

## CCCCCCCC[n+]1cccc(C(N)=O)c1.O=C([O-])c1ccccc1O [compound 4]
Artemia franciscana; [3]
  EC50: 360 µg/mL
Artemia franciscana; [4]
  EC50: 100 to 1000 µg/mL
Artemia franciscana
  Class: Practically Nontoxic (100-1000)
[1]; [6]
  logP at 24 h: 0.07
Staphylococcus aureus
  MIC: 1020 µg/mL
[2]
  MIC: 2050 µg/mL

## CCCCCCCCCC[n+]1cccc(C(N)=O)c1.O=C([O-])c1ccccc1O [compound 5]
Artemia franciscana; [3]
  EC50: 138 µg/mL
Artemia franciscana; [4]
  EC50: 100 to 1000 µg/mL
Artemia franciscana
  Class: Practically Nontoxic (100-1000)
[1]; [6]
  logP at 24 h: 0.59
Staphylococcus aureus
  MIC: 256 µg/mL
  MBC: 256 µg/mL
[2]
  MIC: 256 µg/mL
  MBC: 256 µg/mL
